# According to patent US20090104265A1, “Polymorphs of N-(4-chloro-3-methyl-5-isoxazolyl) 2-[2-methyl-4,5-(methylenedioxy)phenylacetyl] thiophene-3-sulfonamide, sodium salt” (priority 2006, published 2009):
# “Also recorded” adds a separate entry of the source. Read-outs that look alike come from different tables or passages of the source.
# Legend:
# [1] = Moisture sorption/desorption (moisture balance); type: physicochemical; details: for weight loss at 5% RH: sample not dried prior to analysis; for hygroscopicity: based on moisture sorption/desorption data
# Protocol: The moisture sorption/desorption data was collected on a VT SGA-100 moisture balance system. […] The sample was not dried prior to analysis. Equilibrium criteria used for analysis was less than 0.0100% weight change in 5 minutes with a maximum equilibration time of 3 hours if the weight criterion was not met. Data was not corrected for the initial moisture content of the samples.
# [2] = Interconversion studies of Forms A and B; type: physicochemical
# Text: The interconversion of Forms A and B were preformed using ethyl acetate and 95% isopropanol:water. […] The interconversions in ethyl acetate yielded a mixture of Forms A and B, which is probably due to the low solublility of the materials.
# physchem = details: thermodynamic from solid, SOLUBILITY (mg/mL), ambient temperature
# [3] = ambient temperature, sodium salt
# [4] = listed as Sample lot I Form A, sodium salt
# [5] = listed as Sample lot III Form A, sodium salt
# [6] = listed as Sample lot IV Form A, sodium salt
compound,measurement,setting,value
"Cc1cc2c(cc1CC(=O)c1sccc1S(=O)(=O)Nc1onc(C)c1Cl)OCO2.[Na] [Amorphous, N-(4-chloro-3-methyl-5-isoxazolyl)-2-[2-methyl-4,5-(methylenedioxy)phenylacetyl]thiophene-3-sulfonamide, sodium salt]",weight loss at 5% RH,[1],"1.4% weight loss at 5% RH,"
same,total weight gain at 95% RH,"[1]; listed as amorphous form, sodium salt",22%
same,total weight gain at 95% RH,[1]; sodium salt,22.0.% total weight gain at 95% RH
same,hygroscopicity,[1],highly hygroscopic
"Cc1cc2c(cc1CC(=O)c1sccc1S(=O)(=O)[N-]c1onc(C)c1Cl)OCO2.[Na+] [Form A, N-(4-chloro-3-methyl-5-isoxazolyl)-2-[2-methyl-4,5-(methylenedioxy)phenylacetyl]thiophene-3-sulfonamide, sodium salt]",relative thermodynamic stability of the forms,[2]; interconversion in 95% isopropanol:water,more thermodynamically stable form
same,relative stability of the forms,[2]; interconversion studies in ethyl acetate (so in the source),most stable form
same,relative thermodynamic stability of the forms,"[2]; interconversion studies, solvent not stated",more thermodynamically stable form
same,solubility,"physchem; organic solvent or mixture, N,N-dimethylformamide (DMF)",228 mg/mL
same,solubility,"physchem; organic solvent or mixture, acetone",96 mg/mL
same,solubility,"physchem; organic solvent or mixture, acetonitrile (ACN)",25 mg/mL
same,solubility,"physchem; organic solvent or mixture, chloroform",< 3 mg/mL
same,solubility,"physchem; organic solvent or mixture, dichloromethane",< 3 mg/mL
same,solubility,"physchem; organic solvent or mixture, ethanol (EtOH)",60 mg/mL
same,solubility,"physchem; organic solvent or mixture, ethyl acetate (EtOAc)",6 mg/mL
same,solubility,"physchem; organic solvent or mixture, hexanes",< 8 mg/mL
same,solubility,"physchem; organic solvent or mixture, isopropanol (IPA)",< 4 mg/mL
same,solubility,"physchem; organic solvent or mixture, methanol (MeOH)",160 mg/mL
same,solubility,"physchem; organic solvent or mixture, methyl ethyl ketone (MEK)",34 mg/mL
same,solubility,"physchem; organic solvent or mixture, methyl t-butyl ether (MTBE)",< 3 mg/mL
same,solubility,"physchem; organic solvent or mixture, tetrahydrofuran (THF)",86 mg/mL
same,solubility,"physchem; organic solvent or mixture, toluene",< 7 mg/mL
same,solubility,physchem; water,48 mg/mL
same,weight loss at 5% RH,[1]; [4],"0.18% weight loss at 5% RH,"
same,weight loss at 5% RH,[1]; [5],"0.04% weight loss at 5% RH,"
same,weight loss at 5% RH,[1]; [6],"0.05% weight loss at 5% RH,"
same,weight loss at 5% RH,[1]; sodium salt,minimal weight
same,total weight gain at 95% RH,[1]; [4],1.48% total weight gain at 95% RH
same,total weight gain at 95% RH,[1]; [5],1.08% total weight gain at 95% RH
same,total weight gain at 95% RH,[1]; [6],1.10% total weight gain at 95% RH
same,total weight gain at 95% RH,[1]; sodium salt,less than 1.5%
same,hygroscopicity,[1]; sodium salt,non-hygroscopic up to 75% RH; also recorded: nonhygroscopic
same,solubility,"[3]; N,N-dimethylformamide (DMF)",>228 mg/mL
same,solubility,[3]; chloroform,<3 mg/mL
same,solubility,[3]; dichloromethane,<3 mg/mL
same,solubility,[3]; methyl t-butyl ether (MTBE),<3 mg/mL
"Cc1cc2c(cc1CC(=O)c1sccc1S(=O)(=O)[N-]c1onc(C)c1Cl)OCO2.[Na+] [Form B, N-(4-chloro-3-methyl-5-isoxazolyl)-2-[2-methyl-4,5-(methylenedioxy)phenylacetyl]thiophene-3-sulfonamide, sodium salt]",weight loss at 5% RH,[1]; sodium salt,"0.13% weight loss at 5% RH,"
same,weight change during the moisture sorption/desorption experiment,"[1]; 5 to 95% RH sorption, 95 to 5% RH desorption",loses and gains minimal weight
same,total weight gain at 95% RH,[1]; sodium salt,0.98% total weight gain at 95% RH
